The target in the assay is HIV-1 RT (Human immunodeficiency virus type 1 group M subtype B, UniProt P03366). In words: HIV Reverse Transcriptase Assay: Inhibitor IC50 Determination. Format: biochemical. The conditions noted are these: purified recombinant enzyme, poly(rA)/oligo(dT)16 template-primer, 37° C. 30 min. Here is the method:
HIV Reverse Transcriptase Assay: Inhibitor IC50 Determination
HIV-1 RT assay was carried out in 96-well Millipore MultiScreen MADVNOB50 plates using purified recombinant enzyme and a poly(rA)/oligo(dT)16 template-primer in a total volume of 50 μL. The assay constituents were 50 mM Tris/HCl, 50 mM NaCl, 1 mM EDTA, 6 mM MgCl2, 5 μM dTTP, 0.15 μCi [^3H] dTTP, 5 μg/ml poly (rA) pre annealed to 2.5 μg/ml oligo (dT)16 and a range of inhibitor concentrations in a final concentration of 10% DMSO. Reactions were initiated by adding 4 nM HIV-1 RT and after incubation at 37° C. for 30 min, they were stopped by the addition of 50 μl ice cold 20% TCA and allowed to precipitate at 4° C. for 30 min. The precipitates were collected by applying vacuum to the plate and sequentially washing with 3×200 μl of 10% TCA and 2×200 μl 70% ethanol. Finally, the plates were dried and radioactivity counted in a Packard TopCounter after the addition of 25 μl scintillation fluid per well. IC50's were calculated by plotting % inhibition versus log10 inhibitor concentrations.

The text below walks through data of patent publication US7388111B2, “Non-nucleoside reverse transcriptase inhibitors” (Roche Palo Alto LLC, priority 2005, dated 2008).

The structures appear in SMILES notation.

For the molecule `Cc1cc(OCCCS(N)(=O)=O)ccc1NC(=O)Cc1ccc(Oc2cc(Cl)ccc2Br)c(Cl)c1` [Compound I-5, 2-[4-(2-Bromo-5-chloro-phenoxy)-3-chloro-phenyl]-N-[2-methyl-4-(3-sulfamoyl-propoxy)-phenyl]-acetamide], the IC50 amounted to 148 nM.
Then `O=C(Cc1ccc(Oc2cc(Cl)ccc2Br)c(Cl)c1)Nc1ccccc1Cl` [Compound I-6, 2-[4-(2-Bromo-5-chloro-phenoxy)-3-chloro-phenyl]-N-(2-chloro-phenyl)-acetamide], with 170 nM; and `Cc1ccccc1NC(=O)Cc1ccc(Oc2cc(Cl)ccc2Br)c(Cl)c1` [Compound I-7, 2-[4-(2-Bromo-5-chloro-phenoxy)-3-chloro-phenyl]-N-o-tolyl-acetamide], with 832 nM.
Then `O=C(Cc1ccc(Oc2cc(Cl)ccc2Br)c(Cl)c1)Nc1ccccc1F` [Compound I-8, 2-[4-(2-Bromo-5-chloro-phenoxy)-3-chloro-phenyl]-N-(2-fluoro-phenyl)-acetamide], with 5810 nM; and `Cc1c(CC(=O)Nc2ccc(S(N)(=O)=O)cc2Cl)ccc(Oc2cc(Cl)cc(C#N)c2)c1C` [Compound I-18, 2-[4-(3-Chloro-5-cyano-phenoxy)-2,3-dimethyl-phenyl]-N-(2-chloro-4-sulfamoyl-phenyl)-acetamide], with 111 nM; and `N#Cc1cc(C#N)cc(Oc2ccc(CC(=O)Nc3ccccc3Br)cc2Cl)c1` [Compound I-20, N-(2-Bromo-phenyl)-2-[3-chloro-4-(3,5-dicyano-phenoxy)-phenyl]-acetamide], with 2380 nM.
The figure for `N#Cc1cc(C#N)cc(Oc2ccc(CC(=O)Nc3ccc(S(N)(=O)=O)cc3Br)cc2Cl)c1` [Compound I-21, N-(2-Bromo-4-sulfamoyl-phenyl)-2-[3-chloro-4-(3,5-dicyano-phenoxy)-phenyl]-acetamide] is 159 nM; for `Cc1cc(S(N)(=O)=O)ccc1NC(=O)Cc1ccc(Oc2ccc(C#N)cc2C)c(C)c1C` [Compound I-23, 2-[4-(4-Cyano-2-methyl-phenoxy)-2,3-dimethyl-phenyl]-N-(2-methyl-4-sulfamoyl-phenyl)-acetamide] it is 252 nM.
Take `Cc1cc(C#N)ccc1Oc1ccc(CC(=O)Nc2ccc(S(N)(=O)=O)cc2Cl)c(C)c1C` [Compound I-25, N-(2-Chloro-4-sulfamoyl-phenyl)-2-[4-(4-cyano-2-methyl-phenoxy)-2,3-dimethyl-phenyl]-acetamide]: the IC50 came to 157 nM.
The figure for `Cc1c(CC(=O)Nc2ccc(S(N)(=O)=O)cc2Br)ccc(Oc2cc(Cl)cc(C#N)c2)c1C` [Compound I-33, N-(2-Bromo-4-sulfamoyl-phenyl)-2-[4-(3-chloro-5-cyano-phenoxy)-2,3-dimethyl-phenyl]-acetamide] is 84.3 nM; for `Cc1cc(S(N)(=O)=O)ccc1NC(=O)Cc1ccc(Oc2cc(C#N)ccc2Cl)c(Cl)c1` [Compound I-35, 2-[3-Chloro-4-(2-chloro-5-cyano-phenoxy)-phenyl]-N-(2-methyl-4-sulfamoyl-phenyl)-acetamide] it is 395 nM.
On to `N#Cc1ccc(Cl)c(Oc2ccc(CC(=O)Nc3ccc(S(N)(=O)=O)cc3Cl)cc2Cl)c1` [Compound I-36, 2-[3-Chloro-4-(2-chloro-5-cyano-phenoxy)-phenyl]-N-(2-chloro-4-sulfamoyl-phenyl)-acetamide], for which the IC50 stood at 104 nM.
The figure for `Cc1cc(S(N)(=O)=O)ccc1NC(=O)Cc1ccc(Oc2cc(Cl)cc(C#N)c2)c(Cl)c1` [Compound I-38, 2-[3-Chloro-4-(3-chloro-5-cyano-phenoxy)-phenyl]-N-(2-methyl-4-sulfamoyl-phenyl)-acetamide] is 806 nM; for `N#Cc1cc(Cl)cc(Oc2ccc(CC(=O)Nc3ccc(S(N)(=O)=O)cc3Cl)cc2Cl)c1` [Compound I-39, 2-[3-Chloro-4-(3-chloro-5-cyano-phenoxy)-phenyl]-N-(2-chloro-4-sulfamoyl-phenyl)-acetamide] it is 92.6 nM.

Broadly, the IC50 is the concentration that inhibits the measured activity by half.
